Data reported in ChEMBL document CHEMBL5385844, “Discovery of novel imidazole chemotypes as isoform-selective JNK3 inhibitors for the treatment of Alzheimer's disease” (Eur J Med Chem, 2023).
Calls of active or inactive are those of the source. No cut-off for these calls is given here.

Key:
[1] = target: Mitogen-activated protein kinase 10 (Homo sapiens, UniProt P53779); test: Inhibition of human JNK3 incubated for 40 mins in presence of ATP and [gamma33P-ATP] by scintillation counting method; conditions: read-out: IC50
[2] = target: T1, Mitogen-activated protein kinase 8 (Homo sapiens, UniProt P45983); test: Inhibition of human JNK1 incubated for 40 mins in presence of ATP and [gamma33P-ATP] by scintillation counting method
[3] = target: T2, Mitogen-activated protein kinase 9 (Homo sapiens, UniProt P45984); test: Inhibition of human JNK2 incubated for 40 mins in presence of ATP and [gamma33P-ATP] by scintillation counting method
[4] = Permeability of the compound by PAMPA-BBB assay; assay type: ADME; conditions: read-out: permeability
[5] = Efflux ratio of apparent permeability basolateral to apical side over apical to basolateral side in human Caco-2 cells at 10 uM incubated for 1 hr by LC-MS/MS analysis; assay type: ADME, cell-based
[6] = Apparent permeability across basolateral to apical side in human Caco-2 cells at 10 uM incubated for 1 hr by LC-MS/MS analysis; assay type: ADME, cell-based
[7] = Apparent permeability across apical to basolateral side in human Caco-2 cells at 10 uM incubated for 1 hr by LC-MS/MS analysis; assay type: ADME, cell-based
[8] = Toxicity in homozygous 3 x Tg mouse model assessed as visual inspection at 60 mg/kg, po daily for 2.2 months; assay type: organism-based; conditions: in vivo, 1606 h
Mus musculus [9] = test: Anti-alzheimer activity against homozygous 3 x Tg mouse model assessed as time spent in platform quadrant at 60 mg/kg, po administered daily for 2.2 months and measured after 68 to 73 days of treatment by Morris water maze test (reference value: 14.26 +/- 1.62 sec); assay type: functional; conditions: 1606 h
Mus musculus [10] = test: Anti-alzheimer activity against homozygous 3 x Tg mouse model assessed as escape latency time at 30 mg/kg, po administered daily for 2.2 months and measured after 60 days of treatment by Passive avoidance test (reference value: 40.6 +/- 6 sec); assay type: functional; conditions: 1606 h
Mus musculus [11] = test: Anti-alzheimer activity against homozygous 3 x Tg mouse model assessed as spontaneous alteration at 60 mg/kg, po administered daily for 2.2 months and measured after 57 days of treatment by Y-maze test (reference value: 45.05 +/- 3.61%); assay type: functional; conditions: 1606 h
Mus musculus [12] = test: Anti-alzheimer activity against APP/PS1 dE9 double transgenic mouse model assessed as time spent in platform quadrant at 30 mg/kg, po administered 3 times/week for 1 month and measured after 40 to 45 days of treatment by Morris water maze test (reference value: 15.94 +/- 2.08 sec); assay type: functional; conditions: time 1 months, 730 h
Mus musculus [13] = test: Anti-alzheimer activity against APP/PS1 dE9 double transgenic mouse model assessed as time spent in platform quadrant at 10 mg/kg, po administered 3 times/week for 1 month and measured after 40 to 45 days of treatment by Morris water maze test (reference value: 15.94 +/- 2.08 sec); assay type: functional; conditions: time 1 months, 730 h
Mus musculus [14] = test: Anti-alzheimer activity against APP/PS1 dE9 double transgenic mouse model assessed as escape latency time at 30 mg/kg, po administered 3 times/week for 1 month and measured after 27 days of treatment by Passive avoidance test (reference value: 24.8 +/- 4.1 sec); assay type: functional; conditions: time 1 months, 730 h
Mus musculus [15] = test: Anti-alzheimer activity against APP/PS1 dE9 double transgenic mouse model assessed as escape latency time at 10 mg/kg, po administered 3 times/week for 1 month and measured after 27 days of treatment by Passive avoidance test (reference value: 24.8 +/- 4.1 sec); assay type: functional; conditions: time 1 months, 730 h
Mus musculus [16] = test: Anti-alzheimer activity against APP/PS1 dE9 double transgenic mouse model assessed as spontaneous alteration at 30 mg/kg, po administered 3 times/week for 1 month and measured after 27 days of treatment by Y-maze test (reference value: 45.51 +/- 2.92%); assay type: functional; conditions: time 1 months, 730 h
Mus musculus [17] = test: Anti-alzheimer activity against APP/PS1 dE9 double transgenic mouse model assessed as spontaneous alteration at 10 mg/kg, po administered 3 times/week for 1 month and measured after 27 days of treatment by Y-maze test (reference value: 45.51 +/- 2.92%); assay type: functional; conditions: time 1 months, 730 h
[18] = Toxicity in APP/PS1 mouse assessed as abnormal symptoms at 60 mg/kg, po treated for 2 months; assay type: organism-based; conditions: in vivo, 1460 h
[19] = Toxicity in APP/PS1 mouse assessed as weight change at 60 mg/kg, po treated for 2 months; assay type: organism-based; conditions: in vivo, 1460 h
[20] = Toxicity in APP/PS1 mouse assessed as weight change at 30 mg/kg, po treated for 2 months; assay type: organism-based; conditions: in vivo, 1460 h
[21] = Toxicity in APP/PS1 mouse assessed as abnormal symptoms at 30 mg/kg, po treated for 2 months; assay type: organism-based; conditions: in vivo, 1460 h
[22] = Brain to Plasma ratio in Sprague-Dawley rat at 30 mg/kg, po measured at Tmax; assay type: ADME, organism-based; conditions: read-out: BPR
[23] = Plasma concentration in Sprague-Dawley rat at 30 mg/kg, po measured at Tmax; assay type: ADME, organism-based
[24] = Drug uptake in Sprague-Dawley rat brain at 30 mg/kg, po measured at Tmax; assay type: ADME, organism-based; conditions: in vivo
[25] = Oral bioavailability in Sprague-Dawley rat at 3 mg/kg measured upto 24 hrs by UPLC analysis; assay type: ADME, organism-based; conditions: in vivo
[26] = Half life in Sprague-Dawley rat at 3 mg/kg, po measured upto 24 hrs by UPLC analysis; assay type: ADME, organism-based; conditions: in vivo
[27] = Half life in Sprague-Dawley rat at 1 mg/kg, iv measured upto 24 hrs by UPLC analysis; assay type: ADME, organism-based; conditions: in vivo
[28] = Tmax in Sprague-Dawley rat at 3 mg/kg, po measured upto 24 hrs by UPLC analysis; assay type: ADME, organism-based; conditions: in vivo
[29] = Cmax in Sprague-Dawley rat at 3 mg/kg, po measured upto 24 hrs by UPLC analysis; assay type: ADME, organism-based; set-up: dose 3 mg/kg, time < 24 hrs, route po; conditions: in vivo
[30] = AUC in Sprague-Dawley rat at 1 mg/kg, iv measured upto 24 hrs by UPLC analysis; assay type: ADME, organism-based; set-up: dose 1 mg/kg, time < 24 hrs, route iv; conditions: in vivo
Cortical neurone [31] = test: Neuroprotective activity against Amyloid beta (1 to 42)-induced toxicity in rat cortical neuron assessed as cell viability at 20 uM measured after 24 hrs by MTT assay; assay type: functional; conditions: read-out: Activity
Cortical neurone [32] = test: Neuroprotective activity against Amyloid beta (1 to 42)-induced toxicity in rat cortical neuron assessed as cell viability at 20 uM measured after 48 hrs by MTT assay; assay type: functional; conditions: read-out: Activity
[33] = target: T1, Mitogen-activated protein kinase 8; test: Inhibition of JNK1 (unknown origin) assessed as incorporation of 33P-ATP
[34] = target: T2, Mitogen-activated protein kinase 9; test: Inhibition of JNK2 (unknown origin) assessed as incorporation of 33P-ATP
[35] = Oral bioavailability in Sprague-Dawley rat at 15 mg/kg measured upto 24 hrs by UPLC analysis; assay type: ADME, organism-based; conditions: in vivo
[36] = Half life in Sprague-Dawley rat at 15 mg/kg, po measured upto 24 hrs by UPLC analysis; assay type: ADME, organism-based; conditions: in vivo
[37] = Tmax in Sprague-Dawley rat at 15 mg/kg, po measured upto 24 hrs by UPLC analysis; assay type: ADME, organism-based; conditions: in vivo
[38] = Cmax in Sprague-Dawley rat at 15 mg/kg, po measured upto 24 hrs by UPLC analysis; assay type: ADME, organism-based; set-up: dose 15 mg/kg, time < 24 hrs, route po; conditions: in vivo
[39] = AUC in Sprague-Dawley rat at 15 mg/kg, po measured upto 24 hrs by UPLC analysis; assay type: ADME, organism-based; set-up: dose 15 mg/kg, time < 24 hrs, route po; conditions: in vivo
Cortical neurone [40] = test: Neuroprotective activity against Amyloid beta (1 to 42)-induced toxicity in rat cortical neuron assessed as cell viability measured after 24 to 48 hrs by MTT assay; assay type: functional, cell-based; conditions: time 24-48 hrs

T2 sequence (P45984 whole entry): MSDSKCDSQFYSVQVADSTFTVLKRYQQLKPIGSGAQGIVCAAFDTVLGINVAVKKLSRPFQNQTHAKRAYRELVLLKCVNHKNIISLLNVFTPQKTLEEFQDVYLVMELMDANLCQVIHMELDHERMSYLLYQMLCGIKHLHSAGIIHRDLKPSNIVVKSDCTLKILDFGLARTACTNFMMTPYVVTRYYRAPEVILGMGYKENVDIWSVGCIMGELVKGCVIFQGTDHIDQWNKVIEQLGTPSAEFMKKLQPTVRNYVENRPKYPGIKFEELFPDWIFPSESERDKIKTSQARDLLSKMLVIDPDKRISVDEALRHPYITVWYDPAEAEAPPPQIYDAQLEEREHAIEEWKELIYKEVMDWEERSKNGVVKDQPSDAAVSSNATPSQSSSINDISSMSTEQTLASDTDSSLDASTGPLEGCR
T1 sequence (P45983 whole entry): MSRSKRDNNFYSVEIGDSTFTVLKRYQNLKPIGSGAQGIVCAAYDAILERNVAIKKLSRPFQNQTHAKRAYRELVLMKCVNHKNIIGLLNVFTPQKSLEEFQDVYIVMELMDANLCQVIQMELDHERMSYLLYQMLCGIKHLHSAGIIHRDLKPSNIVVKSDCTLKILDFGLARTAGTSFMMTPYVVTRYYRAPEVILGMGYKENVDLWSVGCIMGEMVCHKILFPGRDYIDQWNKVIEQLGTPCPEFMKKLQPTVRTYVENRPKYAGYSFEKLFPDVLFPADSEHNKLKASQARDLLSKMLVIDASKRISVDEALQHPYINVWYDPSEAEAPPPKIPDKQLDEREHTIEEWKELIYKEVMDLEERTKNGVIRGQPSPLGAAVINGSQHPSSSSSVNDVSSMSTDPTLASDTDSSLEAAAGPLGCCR
Sequence of Mitogen-activated protein kinase 10 (P53779 whole entry): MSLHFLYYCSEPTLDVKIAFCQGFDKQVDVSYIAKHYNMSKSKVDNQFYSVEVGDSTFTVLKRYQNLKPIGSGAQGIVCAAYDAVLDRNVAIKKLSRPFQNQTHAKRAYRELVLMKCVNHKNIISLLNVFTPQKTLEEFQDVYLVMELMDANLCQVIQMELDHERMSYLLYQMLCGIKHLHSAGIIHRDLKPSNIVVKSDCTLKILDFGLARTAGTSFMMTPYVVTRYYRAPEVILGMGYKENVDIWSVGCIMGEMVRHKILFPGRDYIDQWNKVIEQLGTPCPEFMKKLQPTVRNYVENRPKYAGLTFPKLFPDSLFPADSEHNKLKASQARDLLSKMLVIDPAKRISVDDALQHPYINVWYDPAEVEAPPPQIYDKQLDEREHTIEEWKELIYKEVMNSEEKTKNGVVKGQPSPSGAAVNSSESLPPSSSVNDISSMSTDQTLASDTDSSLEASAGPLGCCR

## N#CCc1cnc(-c2ccc(Cl)c(Cl)c2)n1-c1ccnc(NC(=O)NC2CCCN(C(=O)C3CC3)C2)n1 (stereo unspecified)
[1]
  IC50: > 10000 nM
[2]
  IC50: > 10000 nM
[3]
  IC50: > 10000 nM

## N#CCc1cnc(-c2ccc3ccccc3c2)n1-c1ccnc(NC2CCOCC2)n1
[1]
  IC50: 321 nM

## C[C@@H](O)CNc1nccc(-n2c(CC#N)cnc2-c2ccc(F)c(C(F)(F)F)c2)n1
[1]
  IC50: > 10000 nM

## N#CCc1cnc(C2=CC3OCOC3C=C2)n1-c1ccnc(N[C@H]2CCCNC2)n1 (stereo partly specified)
[1]
  IC50: > 10000 nM

## N#CCc1cnc(-c2ccc3c(c2)CCO3)n1-c1ccnc(N[C@H]2CCCN(C(=O)C3CC3)C2)n1
[4]
  Papp: 8.91 ×10⁻⁶ cm/s
[5]
  efflux ratio at 1 h, 10 µM: 2.86
[6]
  Papp B→A at 1 h, 10 µM: 31.3 ×10⁻⁶ cm/s
[7]
  Papp A→B at 1 h, 10 µM: 11 ×10⁻⁶ cm/s
[8]
  Activity: Non-Toxic
Mus musculus [9]
  Time: 21.91 s
Mus musculus [10]
  Time: 71.1 s
Mus musculus [11]
  Activity: 57.14%
Mus musculus [12]
  Time: 22.5 s
Mus musculus [13]
  Time: 21.55 s
Mus musculus [14]
  Time: 40.1 s
Mus musculus [15]
  Time: 34.7 s
Mus musculus [16]
  Activity: 54.99%
Mus musculus [17]
  Activity: 53.15%
[18]
  Activity: Non-Toxic
[19]
  Activity: Non-Toxic
[20]
  Activity: Non-Toxic
[21]
  Activity: Non-Toxic
[22]
  Kp: 0.06
[23]
  Cmax: 5910 ng/mL
[24]
  Drug uptake: 357 ng/g
[25]
  bioavailability: 86.2%
[26]
  half-life: 68.4 min
[27]
  half-life: 21.6 min
[28]
  Tmax: 40.2 min
[29]
  Cmax: 1240 ng/mL
[30]
  AUC at 24 h: 1090 ng·h/mL
Cortical neurone [31]
  viability at 20 µM: 73.3%
Cortical neurone [32]
  viability at 20 µM: 46.3%
[1]
  IC50: 4.1 nM
[2]
  IC50: 148 nM
[3]
  IC50: 44 nM

## N#CCc1cnc(-c2ccc(Cl)c(Cl)c2)n1-c1ccnc(NC2CCOCC2)n1
[1]
  IC50: 290 nM

## N#CCc1cnc(C2=CC3OCCOC3C=C2)n1-c1ccnc(N[C@H]2CCCNC2)n1 (stereo partly specified)
[1]
  IC50: > 10000 nM

## O=C(C1CC1)N1CCC[C@H](Nc2nccc(-n3c(-c4ccc5c(c4)OCCO5)nc4cc(O)c(O)cc43)n2)C1
[33]
  IC50: > 10000 nM
[34]
  IC50: ~1000 nM
[1]
  IC50: 10 nM

## NC(=O)N1Cc2nc(-c3ccc(Cl)c(Cl)c3)n(-c3ccnc(N[C@@H]4CCN(C(=O)C5CC5)C4)n3)c2C1
[33]
  IC50: > 3000 nM

## C[C@@H](O)CNc1nccc(-n2c(CC#N)cnc2-c2ccc3ccccc3n2)n1
[1]
  IC50: > 10000 nM

## C[C@@H](O)CNc1nccc(-n2c(CC#N)cnc2-c2ccc3ccccc3c2)n1
[1]
  IC50: 4960 nM

## N#CCc1cnc(-c2ccc3c(c2)OCO3)n1-c1ccnc(NC2CCCCC2)n1
[1]
  IC50: 814 nM

## N#CCc1cnc(-c2ccc3c(c2)OCCO3)n1-c1ccnc(NC2CCCCC2)n1
[1]
  IC50: 6270 nM

## N#CCc1cnc(-c2ccc(Cl)c(Cl)c2)n1-c1ccnc(N[C@H]2CCCN(C(=O)C3CC3)C2)n1
[35]
  bioavailability: 6.2%
[36]
  half-life: 105 min
[27]
  half-life: 12.6 min
[37]
  Tmax: 40.2 min
[38]
  Cmax: 406 ng/mL
[39]
  AUC at 24 h: 839 ng·h/mL
[30]
  AUC at 24 h: 902 ng·h/mL
Cortical neurone [31]
  viability at 20 µM: 72.4%
Cortical neurone [32]
  viability at 20 µM: 47%
[1]
  IC50: 2 nM
[2]
  IC50: 312 nM
[3]
  IC50: 44.2 nM

## N#CCc1cnc(-c2ccc3ccccc3n2)n1-c1ccnc(N[C@H]2CCCN(C(=O)C3CC3)C2)n1
[1]
  IC50: 396 nM

## N#CCc1cnc(-c2ccc3c(c2)OCO3)n1-c1ccnc(NC2CCOCC2)n1
[1]
  IC50: 8560 nM

## N#CCc1cnc(-c2ccc3ccccc3c2)n1-c1ccnc(N[C@H]2CCCCN(C(=O)C3CC3)C2)n1
[1]
  IC50: 24.1 nM
[2]
  IC50: 962 nM
[3]
  IC50: 241 nM

## C[C@@H](O)CNc1nccc(-n2c(CC#N)cnc2-c2ccc3c(c2)OCO3)n1
[1]
  IC50: > 10000 nM

## N#CCc1cnc(-c2ccc(Cl)c(Cl)c2)n1-c1ccnc(NC2CCCCC2)n1
[1]
  IC50: 611 nM

## N#CCc1cnc(-c2ccc(Cl)c(Cl)c2)n1-c1ccnc(N[C@H]2CCCN(C(=O)NC3CC3)C2)n1
[1]
  IC50: 5.3 nM
[2]
  IC50: 513 nM
[3]
  IC50: 55.8 nM

## Cc1ccc(-c2ncn(-c3ccc(Nc4nccc(-c5cccc(N6CCOCC6)c5)n4)cc3)n2)cn1
Cortical neurone [40]
  Activity: inactive
